Measurements reported in US10035805B2, “Tricyclic triazolic compounds” (LABORATORIOS DEL DR. ESTEVE S.A., priority 2014, dated 2018).
Counter-ions that a name gives are not always drawn.

target: T1, sigma-1 receptor (Cavia porcellus, UniProt Q60492); assay: Sigma-1 receptor radioligand binding assay with [3H]-(+)-pentazocine in guinea pig brain membranes; settings: radioligand [3H]-(+)-pentazocine at 5.0 nM, 150 min at 37° C., nonspecific binding with 1 μM haloperidol
T1 construct: Guinea pig brains were homogenized in 10 vols; (w/v) of Tris-HCl 50 mM 0.32 M sucrose; from tissue; host or cells: guinea pig brain membranes
Experimental: Brain membrane preparation and binding assays for the al-receptor were performed as described (DeHaven-Hudkins, D. L., L. C. Fleissner, and F. Y. Ford-Rice, 1992, Characterization of the binding of [^3H](+)pentazocine to a recognition sites in guinea pig brain, Eur. J. Pharmacol. 227, 371-378) with some modifications. Guinea pig brains were homogenized in 10 vols. (w/v) of Tris-HCl 50 mM 0.32 M sucrose, pH 7.4, with a Kinematica Polytron PT 3000 at 15000 r.p.m. for 30 s. The homogenate was centrifuged at 1000 g for 10 min at 4° C. and the supernatants collected and centrifuged again at 48000 g for 15 min at 4° C. The pellet was resuspended in 10 volumes of Tris-HCl buffer (50 mM, pH 7.4), incubated at 37° C. for 30 min, and centrifuged at 48000 g for 20 min at 4° C. Following this, the pellet was resuspended in fresh Tris-HCl buffer (50 mM, pH 7.4) and stored on ice until use.
The radioligand used was [^3H]-(+)-pentazocine at 5.0 nM and the final volume was 200 μl. The incubation was initiated with the addition of 100 μl of membrane at a final tissue concentration of approximately 5 mg tissue net weight/mL and the incubation time was 150 m. at 37° C. After incubation, the membranes were collected onto pretreated glass fiber filterplate (MultiScreen-FC, Millipore), with polyethylenimine 0.1%. The filters were washed two times with 200 μl of washing buffer (50 mM Tris Cl, pH=7.4) and then 25 μl of Ecoscint H liquid scintillation cocktail were added. Microplates were allowed to set for several hours and then quantified by liquid scintillation spectrophotometry (1450 Microbeta, Wallac). Nonspecific binding was determined with 1 μM haloperidol.

T1 sequence (Q60492 whole entry): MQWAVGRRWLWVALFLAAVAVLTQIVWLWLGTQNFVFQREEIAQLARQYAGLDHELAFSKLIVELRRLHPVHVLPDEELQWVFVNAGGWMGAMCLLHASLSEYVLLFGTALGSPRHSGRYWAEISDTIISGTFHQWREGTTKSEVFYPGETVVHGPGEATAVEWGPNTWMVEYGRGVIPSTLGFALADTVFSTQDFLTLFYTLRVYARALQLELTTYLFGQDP

Structure (SMILES) | Ki [nM]
c1ccc(CN2C[C@@H]3[C@H](C2)N(CC2CC2)CCc2c(-c4ccccc4)nnn23)cc1 (racemic) [Example 32, (rac) (6a,9a-cis)-8-benzyl-6-(cyclopropylmethyl)-3-phenyl-4,5,6,6a,7,8,9,9a-octahydropyrrolo[3,4-b][1,2,3]triazolo[1,5-d][1,4]diazepine hydrochloride] | < 100
CCC(=O)N1CCc2c(-c3ccccc3)nnn2[C@@H]2CN(Cc3ccccc3)C[C@@H]21 (racemic) [Example 33, (rac) 1-((6a,9a-cis)-8-benzyl-3-phenyl-4,5,7,8,9,9a-hexahydropyrrolo[3,4-b][1,2,3]triazolo[1,5-d][1,4]diazepin-6(6aH)-yl)propan-1-one hydrochloride] | 100 to 500
O=C1N[C@H]2CNC[C@H]2n2nnc(-c3ccccc3)c21 (racemic) [Example 36, (rac)-(5a,8a-cis)-3-phenyl-5,5a,6,7,8,8a-hexahydro-4H-pyrrolo[3,4-e][1,2,3]triazolo[1,5-a]pyrazin-4-one hydrochloride] | > 500
CN1C(=O)c2c(-c3ccccc3)nnn2[C@@H]2CN(Cc3ccccc3)C[C@@H]21 (racemic) [Example 37, (rac)-(5a,8a-cis)-7-benzyl-5-methyl-3-phenyl-5,5a,6,7,8,8a-hexahydro-4H-pyrrolo[3,4-e][1,2,3]triazolo[1,5-a]pyrazin-4-one] | > 500
c1ccc(CN2C[C@@H]3NCc4c(-c5ccccc5)nnn4[C@@H]3C2)cc1 [Example 15, (5aS,8aR)-7-benzyl-3-phenyl-5,5a,6,7,8,8a-hexahydro-4H-pyrrolo[3,4-e][1,2,3]triazolo[1,5-a]pyrazine] | < 100
c1ccc(CN2C[C@@H]3NCc4c(-c5ccccc5)nnn4[C@H]3C2)cc1 [Example 21, (5aS,8aS)-7-benzyl-3-phenyl-5,5a,6,7,8,8a-hexahydro-4H-pyrrolo[3,4-e][1,2,3]triazolo[1,5-a]pyrazine hydrochloride] | > 500
c1ccc(CN2C[C@@H]3[C@@H](C2)NCc2c(-c4ccccc4)nnn23)cc1 [Example 22, (5aR,8aR)-7-benzyl-3-phenyl-5,5a,6,7,8,8a-hexahydro-4H-pyrrolo[3,4-e][1,2,3]triazolo[1,5-a]pyrazine hydrochloride] | < 100
Fc1ccc(CN2C[C@@H]3NCc4c(-c5ccccc5)nnn4[C@H]3C2)cc1 [Example 23, (5aS,8aS)-7-(4-fluorobenzyl)-3-phenyl-5,5a,6,7,8,8a-hexahydro-4H-pyrrolo[3,4-e][1,2,3]triazolo[1,5-a]pyrazine hydrochloride] | > 500
Fc1ccc(CN2C[C@@H]3[C@@H](C2)NCc2c(-c4ccccc4)nnn23)cc1 [Example 24, (5aR,8aR)-7-(4-fluorobenzyl)-3-phenyl-5,5a,6,7,8,8a-hexahydro-4H-pyrrolo[3,4-e][1,2,3]triazolo[1,5-a]pyrazine hydrochloride] | < 100
Clc1ccc(CN2C[C@@H]3[C@@H](C2)NCc2c(-c4ccccc4)nnn23)cc1 [Example 25, (5aR,8aR)-7-(4-chlorobenzyl)-3-phenyl-5,5a,6,7,8,8a-hexahydro-4H-pyrrolo[3,4-e][1,2,3]triazolo[1,5-a]pyrazine hydrochloride] | < 100
FC(F)(F)c1ccc(CN2C[C@@H]3[C@@H](C2)NCc2c(-c4ccccc4)nnn23)cc1 [Example 26, (5aR,8aR)-3-phenyl-7-(4-(trifluoromethyl)benzyl)-5,5a,6,7,8,8a-hexahydro-4H-pyrrolo[3,4-e][1,2,3]triazolo[1,5-a]pyrazine hydrochloride] | 100 to 500
c1ccc(-c2nnn3c2CN[C@@H]2CN(CC4CCOCC4)C[C@H]23)cc1 [Example 27, (5aR,8aR)-3-phenyl-7-((tetrahydro-2H-pyran-4-yl)methyl)-5,5a,6,7,8,8a-hexahydro-4H-pyrrolo[3,4-e][1,2,3]triazolo[1,5-a]pyrazine hydrochloride] | 100 to 500
Fc1ccccc1-c1nnn2c1CN[C@@H]1CN(Cc3ccccc3)C[C@H]12 [Example 29, (5aR,8aR)-7-benzyl-3-(2-fluorophenyl)-5,5a,6,7,8,8a-hexahydro-4H-pyrrolo[3,4-e][1,2,3]triazolo[1,5-a]pyrazine hydrochloride] | < 100
c1ccc(CN2C[C@H]3NCCc4c(-c5ccccc5)nnn4[C@H]3C2)cc1 [Example 34, (6aR,9aS)-8-benzyl-3-phenyl-4,5,6,6a,7,8,9,9a-octahydropyrrolo[3,4-b][1,2,3]triazolo[1,5-d][1,4]diazepine hydrochloride] | 100 to 500
c1ccc(CN2C[C@@H]3NCCc4c(-c5ccccc5)nnn4[C@@H]3C2)cc1 [Example 35, (6aS,9aR)-8-benzyl-3-phenyl-4,5,6,6a,7,8,9,9a-octahydropyrrolo[3,4-b][1,2,3]triazolo [1,5-d][1,4]-diazepine hydrochloride] | < 100
